Activity calls are given as the source filed them.
Columns and labels:
[1] = general mammalian cell viability loss – inhibitor set, cherry-pick, set 2, cytotoxicity control for miR-122 modulator project, dose response (AID 720697); format: functional, cell-based
[2] = biological target: T1, Rac GTPase-activating protein 1 (Homo sapiens, UniProt Q9H0H5); test: blockers of MgcRacGAP-driven Rac1 GTP hydrolysis – biochemical, ADP Hunter fluorescence, primary and confirmatory, confirmation (AID 624330); format: functional
T1 sequence (Q9H0H5 whole entry): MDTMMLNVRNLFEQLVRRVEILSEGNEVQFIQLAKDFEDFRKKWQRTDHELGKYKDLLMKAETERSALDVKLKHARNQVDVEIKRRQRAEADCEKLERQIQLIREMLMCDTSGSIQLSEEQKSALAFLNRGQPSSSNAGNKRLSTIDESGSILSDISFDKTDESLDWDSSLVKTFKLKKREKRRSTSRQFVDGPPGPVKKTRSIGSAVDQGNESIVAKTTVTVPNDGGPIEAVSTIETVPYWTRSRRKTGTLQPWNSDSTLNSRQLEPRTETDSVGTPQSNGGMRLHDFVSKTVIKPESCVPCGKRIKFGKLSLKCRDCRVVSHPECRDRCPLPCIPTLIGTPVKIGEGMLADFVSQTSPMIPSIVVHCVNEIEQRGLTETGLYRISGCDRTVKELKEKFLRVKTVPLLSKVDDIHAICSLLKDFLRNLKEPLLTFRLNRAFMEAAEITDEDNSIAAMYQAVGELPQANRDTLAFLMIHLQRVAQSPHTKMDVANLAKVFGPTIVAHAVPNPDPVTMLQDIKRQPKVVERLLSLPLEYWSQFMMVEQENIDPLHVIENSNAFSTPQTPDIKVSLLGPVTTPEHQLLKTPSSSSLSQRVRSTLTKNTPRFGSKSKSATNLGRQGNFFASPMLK

[3] = biological target: FAD-linked sulfhydryl oxidase ALR (Homo sapiens, UniProt P55789); test: ALR-catalysed DTT oxidation blockers – biochemical, H2O2 detection, luminescence, cherry-pick, dose response (AID 493248)
Chain of FAD-linked sulfhydryl oxidase ALR (P55789 whole entry): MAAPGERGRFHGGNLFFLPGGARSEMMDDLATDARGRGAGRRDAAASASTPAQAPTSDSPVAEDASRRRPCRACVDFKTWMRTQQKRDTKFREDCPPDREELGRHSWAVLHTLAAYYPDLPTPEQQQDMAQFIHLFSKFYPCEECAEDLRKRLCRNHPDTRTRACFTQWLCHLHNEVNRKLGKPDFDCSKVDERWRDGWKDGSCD

[4] = HGIII-sPLA2 enzyme inhibition potency – biochemical, QFRET, IC50, dose response (AID 743457);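 further: green fluorescence rise as the enzyme cleaves BODIPY PC-A2 in liposomes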
[5] = biological target: Cytochrome P450 3A4 (Homo sapiens, UniProt P08684);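 further: CYP3A4 tested as one member of a cytochrome P450 panel screen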
Chain of Cytochrome P450 3A4 (P08684 whole entry): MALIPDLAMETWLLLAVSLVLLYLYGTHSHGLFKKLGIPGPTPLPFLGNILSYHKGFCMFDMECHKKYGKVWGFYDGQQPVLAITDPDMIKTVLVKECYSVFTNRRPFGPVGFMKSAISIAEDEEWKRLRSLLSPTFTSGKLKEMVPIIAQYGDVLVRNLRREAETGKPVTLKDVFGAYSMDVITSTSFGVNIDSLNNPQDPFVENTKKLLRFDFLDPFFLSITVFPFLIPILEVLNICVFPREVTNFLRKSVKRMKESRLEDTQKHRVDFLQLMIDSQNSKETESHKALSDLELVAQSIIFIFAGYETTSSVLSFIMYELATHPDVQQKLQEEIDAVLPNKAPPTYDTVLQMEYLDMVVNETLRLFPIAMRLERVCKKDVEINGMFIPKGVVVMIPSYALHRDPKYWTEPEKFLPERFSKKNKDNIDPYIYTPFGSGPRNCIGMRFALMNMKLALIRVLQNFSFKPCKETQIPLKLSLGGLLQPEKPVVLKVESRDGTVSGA

[6] = biological target: Cytochrome P450 2C9 (Homo sapiens, UniProt P11712)
Chain of Cytochrome P450 2C9 (P11712 whole entry): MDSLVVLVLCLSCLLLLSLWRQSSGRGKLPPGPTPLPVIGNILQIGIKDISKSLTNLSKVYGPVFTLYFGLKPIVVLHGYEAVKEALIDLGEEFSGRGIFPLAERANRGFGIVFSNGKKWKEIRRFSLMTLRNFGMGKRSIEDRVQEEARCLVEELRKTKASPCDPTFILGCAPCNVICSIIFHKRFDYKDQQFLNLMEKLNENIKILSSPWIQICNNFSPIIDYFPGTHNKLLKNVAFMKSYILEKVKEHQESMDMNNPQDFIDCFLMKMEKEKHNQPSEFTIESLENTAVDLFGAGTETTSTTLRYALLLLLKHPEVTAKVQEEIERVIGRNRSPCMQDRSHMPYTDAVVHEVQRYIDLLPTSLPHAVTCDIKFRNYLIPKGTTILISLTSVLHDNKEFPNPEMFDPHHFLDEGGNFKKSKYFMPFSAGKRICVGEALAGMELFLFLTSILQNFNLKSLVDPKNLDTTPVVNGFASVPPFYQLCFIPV

[7] = biological target: Cytochrome P450 2C19 (Homo sapiens, UniProt P33261); test: Cytochrome panel assay with activity outcomes. Panel member name: p450-cyp2c19 Compounds with AC50 equal or less than 10 uM are considered active; format: functional; details: read-out: AC50
Chain of Cytochrome P450 2C19 (P33261 whole entry): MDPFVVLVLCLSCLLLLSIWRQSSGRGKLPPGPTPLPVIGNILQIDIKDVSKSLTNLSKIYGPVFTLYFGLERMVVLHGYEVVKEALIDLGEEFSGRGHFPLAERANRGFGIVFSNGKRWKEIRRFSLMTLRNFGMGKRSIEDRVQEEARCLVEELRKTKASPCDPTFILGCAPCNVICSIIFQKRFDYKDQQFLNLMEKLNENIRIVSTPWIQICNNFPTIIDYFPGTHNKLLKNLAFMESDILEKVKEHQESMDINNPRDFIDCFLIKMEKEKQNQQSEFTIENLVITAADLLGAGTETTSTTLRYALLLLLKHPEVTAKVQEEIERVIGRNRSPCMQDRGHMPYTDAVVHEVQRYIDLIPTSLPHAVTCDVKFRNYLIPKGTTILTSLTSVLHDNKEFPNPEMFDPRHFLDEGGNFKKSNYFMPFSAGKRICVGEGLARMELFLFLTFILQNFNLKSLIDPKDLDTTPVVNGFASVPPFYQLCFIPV

[8] = biological target: fMet-Leu-Phe receptor (Homo sapiens, UniProt P21462); test: formyl peptide receptor binders – dose response (AID 519); format: functional
Chain of fMet-Leu-Phe receptor (P21462 whole entry): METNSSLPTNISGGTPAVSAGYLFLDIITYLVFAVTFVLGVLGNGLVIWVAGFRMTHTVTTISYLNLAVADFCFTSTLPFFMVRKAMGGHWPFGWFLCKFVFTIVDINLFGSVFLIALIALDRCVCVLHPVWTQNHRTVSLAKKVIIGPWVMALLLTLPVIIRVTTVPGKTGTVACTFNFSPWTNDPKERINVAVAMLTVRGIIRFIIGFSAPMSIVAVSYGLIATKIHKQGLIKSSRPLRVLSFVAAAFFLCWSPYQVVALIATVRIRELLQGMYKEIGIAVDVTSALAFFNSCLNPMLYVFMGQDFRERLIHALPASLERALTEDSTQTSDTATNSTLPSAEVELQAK

[9] = biological target: T2, Cytochrome P450 1A2 (Homo sapiens, UniProt P05177);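 further: PubChem cytochrome P450 panel assay, CYP1A2 panel member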
T2 sequence (P05177 whole entry): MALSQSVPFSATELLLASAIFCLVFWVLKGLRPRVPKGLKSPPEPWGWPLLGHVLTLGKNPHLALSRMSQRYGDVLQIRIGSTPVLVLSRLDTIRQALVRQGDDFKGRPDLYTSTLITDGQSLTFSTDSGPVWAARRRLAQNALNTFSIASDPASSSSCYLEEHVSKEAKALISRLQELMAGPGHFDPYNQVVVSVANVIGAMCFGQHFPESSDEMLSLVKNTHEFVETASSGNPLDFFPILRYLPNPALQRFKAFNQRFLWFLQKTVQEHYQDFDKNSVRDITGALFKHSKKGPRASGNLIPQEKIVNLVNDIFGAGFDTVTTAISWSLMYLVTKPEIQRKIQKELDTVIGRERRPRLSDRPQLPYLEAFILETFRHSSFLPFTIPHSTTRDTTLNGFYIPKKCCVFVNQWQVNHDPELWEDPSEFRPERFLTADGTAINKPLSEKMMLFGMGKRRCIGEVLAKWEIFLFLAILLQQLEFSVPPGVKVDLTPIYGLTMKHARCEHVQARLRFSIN

[10] = biological target: Steroidogenic factor 1 (Homo sapiens, UniProt Q13285); test: Counterscreen for inverse agonists of the liver receptor homolog-1 (LRH-1; NR5A2): Luminescence-based cell-based high throughput dose response assay to identify inverse agonists of the Steroidogenic Factor 1 Nuclear Receptor (SF1; NR5A1).; format: functional
Chain of Steroidogenic factor 1 (Q13285 whole entry, the tested form may be a part): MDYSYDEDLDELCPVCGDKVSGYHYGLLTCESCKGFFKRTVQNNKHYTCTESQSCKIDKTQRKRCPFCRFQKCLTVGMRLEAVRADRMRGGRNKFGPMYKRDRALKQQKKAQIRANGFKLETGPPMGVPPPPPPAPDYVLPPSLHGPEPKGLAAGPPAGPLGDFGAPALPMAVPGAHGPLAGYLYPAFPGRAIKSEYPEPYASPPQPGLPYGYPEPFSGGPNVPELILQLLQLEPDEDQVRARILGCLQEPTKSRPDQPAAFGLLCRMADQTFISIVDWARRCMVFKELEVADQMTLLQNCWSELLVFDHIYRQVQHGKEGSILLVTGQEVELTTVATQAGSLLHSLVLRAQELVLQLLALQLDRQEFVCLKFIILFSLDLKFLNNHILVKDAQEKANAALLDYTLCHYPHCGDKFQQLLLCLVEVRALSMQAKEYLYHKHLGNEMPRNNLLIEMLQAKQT

[11] = biological target: T3, Carboxy-terminal domain RNA polymerase II polypeptide A small phosphatase 1 (Homo sapiens, UniProt Q9GZU7); test: CTDSP1 inhibitors, concentration-response, biochemical, absorbance readout, ultra-high-throughput screen actives (AID 540297); format: functional
T3 sequence (Q9GZU7 whole entry): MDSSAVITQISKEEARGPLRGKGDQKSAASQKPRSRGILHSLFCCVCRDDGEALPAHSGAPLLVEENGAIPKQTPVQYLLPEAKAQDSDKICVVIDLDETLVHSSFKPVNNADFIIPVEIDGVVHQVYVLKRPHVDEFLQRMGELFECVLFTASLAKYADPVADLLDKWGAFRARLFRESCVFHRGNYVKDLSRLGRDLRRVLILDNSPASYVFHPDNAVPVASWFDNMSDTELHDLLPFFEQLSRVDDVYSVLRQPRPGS

[12] = biological target: Nuclear receptor subfamily 5 group A member 2 (Homo sapiens, UniProt O00482); format: functional, cell-based;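 further: HEK293T cells transfected with LRH-1 and a StAR promoter luciferase reporter; potency for inhibitors that lower LRH-1 driven reporter light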
Chain of Nuclear receptor subfamily 5 group A member 2 (O00482 whole entry): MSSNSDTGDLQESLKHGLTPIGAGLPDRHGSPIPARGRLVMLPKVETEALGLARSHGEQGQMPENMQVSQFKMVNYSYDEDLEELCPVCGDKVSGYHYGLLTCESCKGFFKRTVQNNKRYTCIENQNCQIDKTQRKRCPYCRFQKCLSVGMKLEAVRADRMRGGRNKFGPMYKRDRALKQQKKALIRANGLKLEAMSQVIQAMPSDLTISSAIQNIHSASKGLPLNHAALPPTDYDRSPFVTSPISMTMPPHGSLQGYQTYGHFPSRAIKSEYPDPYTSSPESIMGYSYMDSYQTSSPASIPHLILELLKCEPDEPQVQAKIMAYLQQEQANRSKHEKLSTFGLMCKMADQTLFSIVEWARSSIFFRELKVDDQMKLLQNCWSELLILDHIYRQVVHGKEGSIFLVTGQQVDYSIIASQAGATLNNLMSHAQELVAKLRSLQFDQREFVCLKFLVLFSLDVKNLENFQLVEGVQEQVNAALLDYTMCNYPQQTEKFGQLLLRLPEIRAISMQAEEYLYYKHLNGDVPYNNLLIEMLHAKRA

[13] = biological target: Albumin (Bos taurus, UniProt P02769); test: Counterscreen for inhibitors of T-cell receptor (TCR)-CD3 interaction: Fluorescence-based biochemical high throughput dose response assay to identify inhibitors of T-cell receptor (TCR)-CD3 interaction using a TAMRA-labeled BSA probe.; format: functional
Chain of Albumin (P02769 whole entry): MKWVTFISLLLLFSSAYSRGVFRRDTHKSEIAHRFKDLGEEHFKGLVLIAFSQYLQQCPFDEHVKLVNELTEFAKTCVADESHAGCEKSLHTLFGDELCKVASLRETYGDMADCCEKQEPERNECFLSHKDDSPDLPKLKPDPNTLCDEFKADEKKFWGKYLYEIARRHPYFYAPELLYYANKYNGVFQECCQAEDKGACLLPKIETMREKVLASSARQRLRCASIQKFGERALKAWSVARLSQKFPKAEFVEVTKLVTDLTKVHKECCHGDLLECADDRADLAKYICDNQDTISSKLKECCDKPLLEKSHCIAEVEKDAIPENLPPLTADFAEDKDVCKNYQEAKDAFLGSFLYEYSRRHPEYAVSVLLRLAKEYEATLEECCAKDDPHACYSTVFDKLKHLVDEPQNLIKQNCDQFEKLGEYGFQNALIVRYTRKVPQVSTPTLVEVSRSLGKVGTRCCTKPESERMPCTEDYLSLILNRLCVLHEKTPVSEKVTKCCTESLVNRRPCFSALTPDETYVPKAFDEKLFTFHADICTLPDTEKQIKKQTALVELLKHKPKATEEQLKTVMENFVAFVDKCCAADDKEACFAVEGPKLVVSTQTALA

[14] = biological target: T4, Low molecular weight phosphotyrosine protein phosphatase (Homo sapiens, UniProt P24666); format: functional; details: read-out: IC50_Mean;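 further: Dose-response confirmation assay measuring inhibition of LMPTP enzyme activity by fluorescence intensity read-out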
T4 sequence (P24666 whole entry): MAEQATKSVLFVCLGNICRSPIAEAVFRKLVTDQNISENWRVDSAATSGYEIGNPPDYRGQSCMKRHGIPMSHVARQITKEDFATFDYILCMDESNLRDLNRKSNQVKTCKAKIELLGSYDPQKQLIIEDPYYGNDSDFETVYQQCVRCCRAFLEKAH

[15] = biological target: T5, Oxysterols receptor LXR-beta (Homo sapiens, UniProt P55055); format: functional, cell-based;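 further: agonist activity at LXR measured by a cell-based luminescence readout across a dose range, run as a counterscreen for daf-12 agonists; HEK293 cells with Gal4-LXR fusion and GAL4-driven luciferase reporter; potency for activation of Gal4-LXR reporter so compounds are agonists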
T5 sequence (P55055 whole entry): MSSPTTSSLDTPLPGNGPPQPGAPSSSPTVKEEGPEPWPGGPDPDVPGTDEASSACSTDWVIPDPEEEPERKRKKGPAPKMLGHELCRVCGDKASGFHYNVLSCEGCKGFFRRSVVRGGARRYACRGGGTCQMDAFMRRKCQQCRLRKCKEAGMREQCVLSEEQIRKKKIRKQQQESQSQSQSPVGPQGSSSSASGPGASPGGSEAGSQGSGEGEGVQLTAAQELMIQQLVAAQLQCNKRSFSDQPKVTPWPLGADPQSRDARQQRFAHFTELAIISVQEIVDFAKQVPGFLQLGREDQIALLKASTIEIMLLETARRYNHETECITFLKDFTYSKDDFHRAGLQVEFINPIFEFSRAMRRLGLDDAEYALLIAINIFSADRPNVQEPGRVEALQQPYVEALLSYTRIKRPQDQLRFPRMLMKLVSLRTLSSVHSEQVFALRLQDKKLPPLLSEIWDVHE

[16] = biological target: T6, DNA repair and recombination protein RAD54-like (Homo sapiens, UniProt Q92698); test: RAD54 Holliday junction migration blockers – biochemical, fluorescence, cherry-picked samples, dose series, confirmation (AID 651657); format: functional
T6 sequence (Q92698 whole entry): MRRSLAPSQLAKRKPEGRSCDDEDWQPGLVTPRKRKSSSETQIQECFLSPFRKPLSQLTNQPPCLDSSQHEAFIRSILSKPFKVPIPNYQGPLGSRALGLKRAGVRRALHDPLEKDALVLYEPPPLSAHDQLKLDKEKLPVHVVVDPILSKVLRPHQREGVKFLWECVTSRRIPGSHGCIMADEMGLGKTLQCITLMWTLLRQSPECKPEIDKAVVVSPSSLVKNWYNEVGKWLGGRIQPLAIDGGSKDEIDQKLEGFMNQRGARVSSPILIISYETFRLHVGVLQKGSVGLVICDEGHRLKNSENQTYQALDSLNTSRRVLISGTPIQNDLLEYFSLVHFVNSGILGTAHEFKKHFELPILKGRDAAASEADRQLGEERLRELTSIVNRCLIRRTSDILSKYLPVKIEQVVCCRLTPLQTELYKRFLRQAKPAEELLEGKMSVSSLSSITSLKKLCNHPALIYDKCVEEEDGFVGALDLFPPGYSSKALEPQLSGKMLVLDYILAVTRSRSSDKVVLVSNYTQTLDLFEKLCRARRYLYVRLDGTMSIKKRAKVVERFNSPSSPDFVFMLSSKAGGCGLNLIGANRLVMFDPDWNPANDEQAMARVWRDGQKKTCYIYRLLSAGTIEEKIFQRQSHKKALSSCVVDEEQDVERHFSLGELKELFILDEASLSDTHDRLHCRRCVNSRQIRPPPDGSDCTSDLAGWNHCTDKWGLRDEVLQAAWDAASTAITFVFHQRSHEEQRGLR

[17] = biological target: T7, DNA repair protein RAD52 homolog (Homo sapiens, UniProt P43351); format: functional, biochemical
T7 sequence (P43351 whole entry): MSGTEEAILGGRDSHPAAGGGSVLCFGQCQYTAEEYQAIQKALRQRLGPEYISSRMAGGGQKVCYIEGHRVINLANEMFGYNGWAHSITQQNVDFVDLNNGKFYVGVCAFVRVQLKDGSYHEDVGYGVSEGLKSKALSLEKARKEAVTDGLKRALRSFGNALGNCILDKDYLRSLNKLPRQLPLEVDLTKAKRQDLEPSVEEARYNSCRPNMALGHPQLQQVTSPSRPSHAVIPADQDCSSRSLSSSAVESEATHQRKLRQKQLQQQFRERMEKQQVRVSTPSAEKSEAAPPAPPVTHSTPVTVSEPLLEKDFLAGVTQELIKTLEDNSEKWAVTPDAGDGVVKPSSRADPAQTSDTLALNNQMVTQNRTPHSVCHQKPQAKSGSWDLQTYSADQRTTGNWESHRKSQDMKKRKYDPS

[18] = biological target: T8, Trace amine-associated receptor 1 (Homo sapiens, UniProt Q96RJ0); test: Counterscreen for agonists of the human trace amine associated receptor 1 (hTAAR1): Fluorescence-based cell-based high throughput dose response assay to identify hTAAR1 agonist that also desensitize TAAR1 receptor response.; format: functional
T8 sequence (Q96RJ0 whole entry): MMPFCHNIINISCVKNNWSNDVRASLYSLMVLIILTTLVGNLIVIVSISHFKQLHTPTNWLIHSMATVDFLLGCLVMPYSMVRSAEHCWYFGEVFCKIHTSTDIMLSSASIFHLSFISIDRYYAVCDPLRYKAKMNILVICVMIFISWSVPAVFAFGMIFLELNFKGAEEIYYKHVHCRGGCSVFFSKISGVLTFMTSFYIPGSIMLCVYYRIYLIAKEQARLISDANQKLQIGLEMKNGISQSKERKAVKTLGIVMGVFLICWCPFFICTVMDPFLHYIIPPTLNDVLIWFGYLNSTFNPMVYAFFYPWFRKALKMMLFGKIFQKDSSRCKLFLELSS

[19] = cells; format: functional, cell-based
[20] = cells; format: functional, cell-based; remark: listed apart in the source
[21] = biological target: T8, Trace amine-associated receptor 1; test: Fluorescence-based cell-based high throughput dose response assay to identify agonists of the human trace amine associated receptor 1 (TAAR1).; format: functional
[22] = viability loss in CEM21 cells – cell-based, CellTiter-Glo luminescence, cherry-picked, cytotoxicity control for viral fusion inhibitor project, dose response (AID 652042); format: functional;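 further: potency for signal decrease meaning cytotoxicity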
[23] = blockers of HIV-1 envelope-mediated cell-cell fusion – cherry-pick, dose response (AID 652057); format: functional, cell-based
[24] = T. cruzi growth inhibition in host cells, dose response, cell-based, plate reader, dry powder, set 2 (AID 652275); format: functional
[25] = MITF: Counter assay: A375 proliferation Measured in Cell-Based System Using Plate Reader - 2084-03_Inhibitor_Dose_DryPowder_Activity_Set8.; format: functional; details: A-375
[26] = MITF Orthogonal Assay: SK-MEL-5 CTG Assay Measured in Cell-Based System Using Plate Reader - 2084-02_Inhibitor_Dose_DryPowder_Activity_Set7.; format: functional

CCOc1ccc(C(CCc2ccccc2)NC(=O)c2ccccc2F)cc1OCC (stereo not drawn)
AC50 [1]: 4.56 µM (active)

O=C(Nc1ccc(N2CCCCCC2)cc1)c1ccc[nH]1
IC50 [2]: 34 µM (active)
AC50 [3]: 0.42 µM (active)
IC50 [4]: 100 µM (inactive)

COc1cc(C2C(C(=O)c3cccs3)=C(O)C(=O)N2Cc2ccco2)cc(OC)c1OC (stereo not drawn)
AC50 [5]: 25.1 µM (inconclusive)
AC50 [6]: 25.1 µM (inconclusive)
AC50 [7]: 14.1 µM (inconclusive)
Ki [8]: 27 µM (inactive)
AC50 [9]: 17.8 µM (inconclusive)

COc1ccc(NC(=O)CSc2sc3c(O)cc(=O)[nH]c3c2C#N)c(OC)c1
IC50 [10]: 13 µM (inactive)
IC50 [11]: 4.21 µM (active)
IC50 [12]: 20.2 µM (inactive)
IC50 [13]: > 94.1 µM (inactive)
IC50 [14]: 26 µM (inactive)

Cc1c(CNCc2cccs2)c(C(=O)O)c(C)n1Cc1ccccc1
Ki [8]: > 66.7 µM (inactive)

COc1ccc2oc3cc(NCCN(C)C)ccc3c(=O)c2c1
EC50 [15]: > 67.5 µM (inactive)
AC50 [16]: 7.73 µM (active)
AC50 [17]: 5.46 µM (active)

O=C(CC1CCCC1)N[C@H](C(=O)N1CCC[C@H]1C(=O)NCCc1ccccc1Cl)c1ccccc1
IC50 [18]: 6.57 µM (active)
EC50 [19]: > 29.9 µM (inactive)
IC50 [20]: > 29.9 µM (inactive)
EC50 [21]: 2.2 µM (active)

COc1ccc2c3c([nH]c2c1)[C@H](CO)N(C(=O)Nc1cccc(F)c1)CC31CCN(S(=O)(=O)c2ccccc2)CC1
AC50 [22]: 19.4 µM (active)
AC50 [23]: 25.4 µM (active)

CC(C)N1CC2(CN(Cc3ccccn3)C2)Oc2c(NC(=O)c3ccncc3)cccc2C1=O
AC50 [24]: 1.37 µM (active)

O=C1C=C(NC2CCCCC2)C(=O)c2ccccc21
AC50 [25]: > 70 µM (inactive)
AC50 [26]: 18.9 µM (active)

COCCNC(=O)c1cc2c(c(-c3cccc(C#CCN(C)C)c3)n1)[C@@H](CCO)N([S+]([O-])C(C)(C)C)C2 (stereo partly drawn)
AC50 [24]: 4.21 µM (active)

From ChEMBL document CHEMBL1201862, “PubChem BioAssay data set” (2004)
